In article PMC7584679 (Journal of Advanced Research, 2020):

Target: hTS (recombinant human TS, thymidylate synthase) (Homo sapiens, UniProt P04818)
Assay: UV absorbance at […] nm, TS activity
Format: biochemical

Sequence of hTS (recombinant human TS, thymidylate synthase) (P04818 2-313): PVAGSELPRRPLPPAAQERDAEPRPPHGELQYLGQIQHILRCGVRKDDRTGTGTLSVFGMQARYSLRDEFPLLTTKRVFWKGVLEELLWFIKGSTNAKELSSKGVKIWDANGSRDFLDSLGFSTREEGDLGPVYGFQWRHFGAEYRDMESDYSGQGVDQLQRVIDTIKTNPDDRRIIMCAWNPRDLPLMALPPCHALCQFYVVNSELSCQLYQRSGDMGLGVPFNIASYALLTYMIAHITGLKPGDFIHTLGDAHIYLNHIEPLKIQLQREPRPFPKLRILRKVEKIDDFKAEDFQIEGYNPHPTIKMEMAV

## O=c1[nH]cc(S(=O)(=O)Nc2cccc(-c3nnc(-c4cccc(F)c4)o3)c2)c(=O)[nH]1 [7i, N-(3-(5-(3-fluorophenyl)-1,3,4-oxadiazol-2-yl)phenyl)-2,4-dihydroxypyrimidine-5-sulfonamide]
  IC50: 4610 ± 1100 nM

## Cc1ccccc1-c1nnc(-c2cccc(NS(=O)(=O)c3c[nH]c(=O)[nH]c3=O)c2)o1 [7b, N-(3-(5-(o-tolyl)-1,3,4-oxadiazol-2-yl)phenyl)-2,4-dihydroxypyrimidine −5-sulfonamide]
  IC50: 2750 ± 290 nM

## O=c1[nH]cc(S(=O)(=O)Nc2cccc(-c3nnc(-c4cccc(Cl)c4)o3)c2)c(=O)[nH]1 [7f, N-(3-(5-(3-chlorophenyl)-1,3,4-oxadiazol-2-yl)phenyl)-2,4-dihydroxypyrimidine-5-sulfonamide]
  IC50: 110 ± 30 nM

## O=c1[nH]cc(S(=O)(=O)Nc2cccc(-c3nnc(-c4ccc(Br)cc4)o3)c2)c(=O)[nH]1 [7m, N-(3-(5-(4-bromophenyl)-1,3,4-oxadiazol-2-yl)phenyl)-2,4-dihydroxypyrimidine-5-sulfonamide]
  IC50: 1290 ± 120 nM

## O=c1[nH]cc(S(=O)(=O)Nc2cccc(-c3nnc(-c4ccccc4Br)o3)c2)c(=O)[nH]1 [7k, N-(3-(5-(2-bromophenyl)-1,3,4-oxadiazol-2-yl)phenyl)-2,4-dihydroxypyrimidine-5-sulfonamide]
  IC50: 1160 ± 370 nM

## O=c1[nH]cc(S(=O)(=O)Nc2cccc(-c3nnc(-c4ccccc4Cl)o3)c2)c(=O)[nH]1 [7e, N-(3-(5-(2-chlorophenyl)-1,3,4-oxadiazol-2-yl)phenyl)-2,4-dihydroxypyrimidine-5-sulfonamide]
  IC50: 650 ± 430 nM

## Nc1nc2[nH]cc(CCc3ccc(C(=O)N[C@@H](CCC(=O)O)C(=O)O)cc3)c2c(=O)[nH]1 [PTX]
  IC50: 2440 ± 880 nM

## Cc1cccc(-c2nnc(-c3cccc(NS(=O)(=O)c4c[nH]c(=O)[nH]c4=O)c3)o2)c1 [7c, N-(3-(5-(m-tolyl)-1,3,4-oxadiazol-2-yl)phenyl)-2,4-dihydroxypyrimidine-5-sulfonamide]
  IC50: 1460 ± 370 nM

## O=c1[nH]cc(S(=O)(=O)Nc2cccc(-c3nnc(-c4cccc(Br)c4)o3)c2)c(=O)[nH]1 [7l, N-(3-(5-(3-bromophenyl)-1,3,4-oxadiazol-2-yl)phenyl)-2,4-dihydroxypyrimidine-5-sulfonamide]
  IC50: 930 ± 280 nM

## O=c1[nH]cc(S(=O)(=O)Nc2cccc(-c3nnc(-c4ccccc4F)o3)c2)c(=O)[nH]1 [7h, N-(3-(5-(2-fluorophenyl)-1,3,4-oxadiazol-2-yl)phenyl)-2,4-dihydroxypyrimidine-5-sulfonamide]
  IC50: 5180 ± 730 nM

## O=c1[nH]cc(S(=O)(=O)Nc2cccc(-c3nnc(-c4ccc(Cl)cc4)o3)c2)c(=O)[nH]1 [7g, N-(3-(5-(4-chlorophenyl)-1,3,4-oxadiazol-2-yl)phenyl)-2,4-dihydroxypyrimidine-5-sulfonamide]
  IC50: 440 ± 100 nM

## Cc1ccc(-c2nnc(-c3cccc(NS(=O)(=O)c4c[nH]c(=O)[nH]c4=O)c3)o2)cc1 [7d, N-(3-(5-(p-tolyl)-1,3,4-oxadiazol-2-yl)phenyl)-2,4-dihydroxypyrimidine-5-sulfonamide]
  IC50: 1790 ± 120 nM

## O=c1[nH]cc(S(=O)(=O)Nc2cccc(-c3nnc(-c4ccccc4)o3)c2)c(=O)[nH]1 [7a, N-(3-(5-phenyl-1,3,4-oxadiazol-2-yl)phenyl)-2,4-dihydroxypyrimidine-5-sulfuramide]
  IC50: 3150 ± 610 nM
